From patent US11008572B2, “Methods and compositions for modulating splicing” (SKYHAWK THERAPEUTICS, INC., priority 2017, dated 2021) come the findings set out here.

Molecules are shown by their SMILES. A value given as a limit tells only on which side of the number the result lay.

The subject of one assay is A-673 cells. Nature of the assay: Cell viability, crystal violet staining. Type of assay: cell-based. To be noted: Homo sapiens, A673, cell viability, read-out: A-673 IC50 (nM) Cell viability. In a few lines:
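Readout is absorbance at 570 nm of crystal violet, taken up in 0.1 M sodium citrate in 50% ethanol after staining with 0.5% dye in 25% methanol. Plates held 5×10^3 cells per well, and compounds were added one day after seeding for 72 hours. Data are relative to vehicle, mean±SE.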
As for `[2H]C([2H])([2H])Oc1cc(-c2cc(O)c(-c3ccc(N(C)[C@H]4C[C@]5(C)CC[C@](C)(C4)N5)nn3)cc2F)cc(F)n1` [compound 208, 2-(6-(((1R,3s,5S)-1,5-dimethyl-8-azabicyclo[3.2.1]octan-3-yl)(methyl)amino)pyridazin-3-yl)-4-fluoro-5-(2-fluoro-6-(methoxy-d3)pyridin-4-yl)phenol], the IC50 – broadly, the concentration that gives 50% inhibition – is more than 1000 nM.

Regarding `CN(c1ccc(-c2ccc(-c3ccnc(C#N)c3)cc2O)nn1)[C@H]1C[C@]2(C)CC[C@](C)(C1)N2` [compound 199], the 50% inhibitory concentration (IC50) is 10 to 100 nM.

For the compound `CN(c1ccc(-c2cc(F)c(-c3cc(=O)n(C)cn3)cc2O)nn1)[C@H]1C[C@]2(C)CC[C@](C)(C1)N2` [compound 198, 6-(4-(6-(((1R,3s,5S)-1,5-dimethyl-8-azabicyclo[3.2.1]octan-3-yl)(methyl)amino)pyridazin-3-yl)-2-fluoro-5-hydroxyphenyl)-3-methylpyrimidin-4(3H)-one], the concentration for half-maximal inhibition (IC50) was less than 10 nM.

For the compound `CN(c1ccc(-c2ccc(-c3cn[nH]c3)cc2O)nn1)[C@H]1C[C@]2(C)COC[C@](C)(C1)N2` [compound 156, 2-(6-(((1R,5S,7r)-1,5-dimethyl-3-oxa-9-azabicyclo[3.3.1]nonan-7-yl)(methyl)amino)pyridazin-3-yl)-5-(1H-pyrazol-4-yl)phenol], the IC50 is 10 to 100 nM.

With `COc1cccc(-c2ccc(-c3ccc(N(C)[C@H]4C[C@]5(C)CC[C@](C)(C4)N5)nn3)c(O)c2)c1` [compound 209, 4-(6-(((1R,3s,5S)-1,5-dimethyl-8-azabicyclo[3.2.1]octan-3-yl)(methyl)amino)pyridazin-3-yl)-3′-methoxy-[1,1′-biphenyl]-3-ol], the half-maximal inhibitory concentration (IC50) is more than 1000 nM.

Consider `[2H]C([2H])([2H])Oc1cc(-c2ccc(-c3ccc(N(C)[C@H]4C[C@]5(C)CC[C@](C)(C4)N5)nn3)c(O)c2)ccn1` [compound 172, 2-(6-(((1R,3s,5S)-1,5-dimethyl-8-azabicyclo[3.2.1]octan-3-yl)(methyl)amino)pyridazin-3-yl)-5-(2-(methoxy-d3)pyridin-4-yl)phenol], for which the IC50 is less than 10 nM.

On to `CN(c1ccc(-c2cc(F)c(-c3cc[nH]c(=O)c3)cc2O)nn1)[C@H]1C[C@]2(C)CC[C@](C)(C1)N2` [compound 184, 4-(4-(6-(((1R,3s,5S)-1,5-dimethyl-8-azabicyclo[3.2.1]octan-3-yl)(methyl)amino)pyridazin-3-yl)-2-fluoro-5-hydroxyphenyl)pyridin-2(1H)-one], for which the IC50 fell in the range of 10 to 100 nM.

For `CN(c1ccc(-c2ccc(-c3ncn(C)c(=O)n3)cc2O)nn1)[C@H]1C[C@]2(C)CC[C@](C)(C1)N2` [compound 181, 4-(4-(6-(((1R,3s,5S)-1,5-dimethyl-8-azabicyclo[3.2.1]octan-3-yl)(methyl)amino)pyridazin-3-yl)-3-hydroxyphenyl)-1-methyl-1,3,5-triazin-2(1H)-one], the IC50 was 251 to 500 nM.

As for `CN(c1ccc(-c2ccc(-n3cc(F)cn3)cc2O)nn1)[C@H]1C[C@]2(C)CC[C@](C)(C1)N2` [compound 175, 2-(6-(((1R,3s,5S)-1,5-dimethyl-8-azabicyclo[3.2.1]octan-3-yl)(methyl)amino)pyridazin-3-yl)-5-(4-fluoro-1H-pyrazol-1-yl)phenol], the IC50 was in the range of 10 to 100 nM.

As to `CN(c1ccc(-c2ccc(-c3cnn(CF)c3)cc2O)nn1)[C@H]1C[C@]2(C)CC[C@](C)(C1)N2` [compound 174, 2-(6-(((1R,3s,5S)-1,5-dimethyl-8-azabicyclo[3.2.1]octan-3-yl)(methyl)amino)pyridazin-3-yl)-5-(1-(fluoromethyl)-1H-pyrazol-4-yl)phenol], the concentration for half-maximal inhibition (IC50) was less than 10 nM.

Staying with this assay, now noted: Homo sapiens, A673, cell viability, read-out: A-673 IC50 (nM), Cell viability.
In the case of `Cc1cnn(-c2ccc(-c3ccc(N(C)[C@@H]4C[C@H]5CC[C@@H](C4)N5)nn3)c(O)c2)c1` [compound 221, 2-(6-(((1R,3s,5S)-8-azabicyclo[3.2.1]octan-3-yl)(methyl)amino)pyridazin-3-yl)-5-(4-methyl-1H-pyrazol-1-yl)phenol], the IC50 was in the range of 101 to 250 nM.

Take `[2H]C([2H])([2H])c1ncc(-c2cc(O)c(-c3ccc(N(C)[C@H]4C[C@]5(C)CC[C@](C)(C4)N5)nn3)cc2F)o1` [compound 304, 2-(6-(((1R,3s,5S)-1,5-dimethyl-8-azabicyclo[3.2.1]octan-3-yl)(methyl)amino)pyridazin-3-yl)-4-fluoro-5-(2-(methyl-d3)oxazol-5-yl)phenol]: the IC50 fell in the range of 10 to 100 nM.

In the case of `CN(c1ccc(-c2ccc(-c3cc(=O)n(C)cn3)cc2O)nn1)[C@@H]1C[C@H]2CCC[C@@H](C1)N2` [compound 300, 6-(4-(6-(((2R,3s,5S)-9-azabicyclo[3.3.1]nonan-3-yl)(methyl)amino)pyridazin-3-yl)-3-hydroxyphenyl)-3-methylpyrimidin-4(3H)-one], the IC50 lay within 10 to 100 nM.

Consider `CNC(=O)c1cc2cc(O)c(-c3ccc(N(C)[C@@H]4C[C@H]5CCC[C@@H](C4)N5)nn3)cc2o1` [compound 294, 6-(6-(((1R,3s,5S)-9-azabicyclo[3.3.1]nonan-3-yl)(methyl)amino)pyridazin-3-yl)-5-hydroxy-N-methylbenzofuran-2-carboxamide], for which the half-maximal inhibitory concentration (IC50) lay within 501 to 1000 nM.

Consider `CN(C)C(=O)c1cc2cc(-c3ccc(N(C)[C@@H]4C[C@H]5CCC[C@@H](C4)N5)nn3)c(O)cc2o1` [compound 298, 5-(6-(((1R,3s,5S)-9-azabicyclo[3.3.1]nonan-3-yl)(methyl)amino)pyridazin-3-yl)-6-hydroxy-N,N-dimethylbenzofuran-2-carboxamide], for which the IC50 fell in the range of 10 to 100 nM.

`C[C@]12CCC[C@](C)(C[C@@H](Oc3ccc(-c4cc(F)c(-c5cn[nH]c5)cc4O)nn3)C1)N2` [compound 263, 2-(6-(((1R,3s,5S)-1,5-dimethyl-9-azabicyclo[3.3.1]nonan-3-yl)oxy)pyridazin-3-yl)-4-fluoro-5-(1H-pyrazol-4-yl)phenol]: the IC50 was less than 10 nM.

For the compound `Cc1ncc(-c2ccc(-c3ccc(N(C)[C@@H]4C[C@H]5CC[C@@H](C4)N5)nn3)c(O)c2)cn1` [compound 237, 2-(6-(((1R,3s,5S)-8-azabicyclo[3.2.1]octan-3-yl)(methyl)amino)pyridazin-3-yl)-5-(2-methylpyrimidin-5-yl)phenol], the IC50 was in the range of 501 to 1000 nM.

For the compound `[2H]C([2H])([2H])Oc1cc(-c2cc(O)c(-c3ccc(N(C)[C@H]4C[C@]5(C)CCC[C@](C)(C4)N5)nn3)cc2F)cnn1` [compound 269, 2-(6-(((1R,3s,5S)-1,5-dimethyl-9-azabicyclo[3.3.1]nonan-3-yl)(methyl)amino)pyridazin-3-yl)-4-fluoro-5-(6-(methoxy-d3)pyridazin-4-yl)phenol], the concentration for half-maximal inhibition (IC50) is less than 10 nM.

Turning to `Cc1ncc(-c2cc(O)c(-c3ccc(N(C)[C@@H]4C[C@H]5CCC[C@@H](C4)N5)nn3)cc2F)o1` [compound 274, 2-(6-(((1R,3s,5S)-9-azabicyclo[3.3.1]nonan-3-yl)(methyl)amino)pyridazin-3-yl)-4-fluoro-5-(2-methyloxazol-5-yl)phenol], the IC50 is less than 10 nM.

The same assay, now with this note: cell viability, read-out: A-673 IC50 (nM), Cell viability.
For the compound `Oc1cc(-c2cn[nH]c2)ccc1-c1ccc(O[C@@H]2C[C@H]3CCC[C@@H](C2)N3)nn1` [compound 276, 2-(6-(((1R,3s,5S)-9-azabicyclo[3.3.1]nonan-3-yl)oxy)pyridazin-3-yl)-5-(1H-pyrazol-4-yl)phenol], the concentration for half-maximal inhibition (IC50) was in the range of 101 to 250 nM.

A further assay has as its system FOXM1^A2 mRNA and FOXM1^BC mRNA. Nature of the assay: Splicing assay (FOXM1), qPCR of isoform mRNAs. To be noted: 24 h, FoxM1 BC mRNA decrease (exon included); 0.1-1000 nM, 24 hours; read-out: Splice IC50 (nM), FoxM1 BC mRNA decrease (exon included). Type of assay: cell-based. How it is done: Various cells lines were treated with the SMSMs described herein. RNA was then isolated, cDNA synthesized, qPCR performed and the levels of various mRNA targets of the SMSMs were determined. In some instances, RNA was isolated, cDNA synthesized, qPCR performed and the levels of mRNA isoforms in the various cell samples were determined.
On the day of the experiment, a 96-well plate was seeded with the cell lines of interest. The cells were diluted with full growth media to a concentration of 2.0×10^5 cells/mL and 100 μL of cells were added to each well (20,000 cells per well). The cells were treated with a compound immediately after plating.
The compounds were then added to the cell plate using the HP compound dispenser. In the initial experiment, a top concentration of 10 μM and an 8 point 4-fold dilution scheme was used. The stock compounds were made at a concentration of 5 mM, and the DMSO concentration was set to 0.2%. DMSO was used to normalize all the compound-containing wells and the untreated cells.
The treated cells were incubated at 37° C. in a 5% CO2 incubator for the desired amount of time. Plates were placed in a plastic bag with a wet paper towel to prevent evaporation.
RNA was isolated using the Cells to CT kit (ThermoFisher, AM1728). The cells were washed once with 100 μL cold PBS. 50 μL of lysis buffer was added to each well/tube (49.5 μL lysis buffer+0.5 μL DNase I per well/tube). The lysis reaction was mixed and incubated at room temperature for 5 minutes. 5 μL of stop solution was added directly into each cell lysis reaction and mixed by pipetting up and down 5 times. The plates/tubes were incubated at room temperature for 2 minutes then placed on ice if the cDNA synthesis was to be performed immediately. Otherwise, the plates/tubes were stored at −80° C. cDNA synthesis reactions were then performed. Reverse Transcription (RT) Master mix was prepared according to the table below.
40 μL RT master mix was added to PCR tubes or plate wells. 10 μL of RNA was added to each tube/well. The RT thermal cycler program was then run and tubes or plate wells were incubated at 37° C. for 1 hour, then at 95° C. for 5 minutes to deactivate the enzyme.
The qPCR was performed using a QuantStudio 6 instrument (ThermoFisher) and the following cycling conditions and according to the tables below. All samples and standards were analyzed in triplicate. Cycle 1: 2 minutes at 50° C. Cycle 2: 10 minutes at 95° C. Cycle 3 (repeat 40 times): 15 seconds at 95° C., 1 minute at 60° C.
The determined isoform 2and isoform 1quantities were then be used to determine the isoform 2: […] at the various compound concentrations. The PPIA quantities were used in the normalization to account of cell proliferation effects of the compounds.
The dilution necessary to make the top standard is calculated. A top concentration 200,000,000 copies/μL of the stock plasmid was prepared in TE buffer. A series of 10-fold dilutions, also in TE, were then made. A total of 5 μL of each standard was used in a qPCR well to generate samples containing 109 copies, […], 10^7copies, 10^6 copies, 10^5 copies, 10^4 copies, 10^3 copies, 10^2 copies, 10^1copies, and 0 copies.
An assay to measure the FOXM1^A2 mRNA and FOXM1^BC mRNA, or MADD^WT (isoform 4) mRNA and MADD^Ex16 (isoform 3) mRNA, or MAPTau^4R mRNA and MAPTau^3R mRNA simultaneously in cell wells was performed. The RNA values were measured relative to DMSO control and also included a housekeeping gene, PPIA to ensure data was consistent. The mRNA values were measured after 24 hours of incubation with the SMSM compounds.
(In general: In qPCR the cycle at which signal appears reflects the starting amount.)
Take `Cc1cnn(-c2ccc(-c3ccc(N(C)[C@@H]4C[C@H]5CC[C@@H](C4)N5)nn3)c(O)c2)c1` [compound 221, 2-(6-(((1R,3s,5S)-8-azabicyclo[3.2.1]octan-3-yl)(methyl)amino)pyridazin-3-yl)-5-(4-methyl-1H-pyrazol-1-yl)phenol]: the half-inhibitory concentration (IC50) lay within 10 to 100 nM.

As for `[2H]C([2H])([2H])c1ncc(-c2cc(O)c(-c3ccc(N(C)[C@H]4C[C@]5(C)CC[C@](C)(C4)N5)nn3)cc2F)o1` [compound 304, 2-(6-(((1R,3s,5S)-1,5-dimethyl-8-azabicyclo[3.2.1]octan-3-yl)(methyl)amino)pyridazin-3-yl)-4-fluoro-5-(2-(methyl-d3)oxazol-5-yl)phenol], the IC50 was less than 10 nM.

Staying with this assay, now noted: FoxM1 A mRNA increase (exon excluded); 0.1-1000 nM, 24 hours; read-out: Splice EC50 (nM), FoxM1 A mRNA increase (exon excluded).
With `Cc1cnn(-c2ccc(-c3ccc(N(C)[C@@H]4C[C@H]5CC[C@@H](C4)N5)nn3)c(O)c2)c1` [compound 221, 2-(6-(((1R,3s,5S)-8-azabicyclo[3.2.1]octan-3-yl)(methyl)amino)pyridazin-3-yl)-5-(4-methyl-1H-pyrazol-1-yl)phenol], the concentration for a half-maximal effect (EC50) (as a rule, the concentration needed to bring the measured effect to its halfway point) was in the range of 10 to 100 nM.

For `[2H]C([2H])([2H])c1ncc(-c2cc(O)c(-c3ccc(N(C)[C@H]4C[C@]5(C)CC[C@](C)(C4)N5)nn3)cc2F)o1` [compound 304, 2-(6-(((1R,3s,5S)-1,5-dimethyl-8-azabicyclo[3.2.1]octan-3-yl)(methyl)amino)pyridazin-3-yl)-4-fluoro-5-(2-(methyl-d3)oxazol-5-yl)phenol], the half-maximal effective concentration (EC50) was more than 1000 nM.
